As usually defined, the IC50 is the concentration that gives 50% inhibition.

The target of assay [1] is T1, cathepsin B (Rattus norvegicus, UniProt P00787). In words: In vitro assay procedure for cathepsin B (recombinant rat cathepsin B, N-CBZ-Phe-Arg-AMC substrate). Format: biochemical. The settings on record: pH 5.1, 10 min incubation at room temperature. How it is done:
In vitro assay procedure for cathepsin B
The compounds of formula I are tested for inhibition of cathepsin B using the known method (A. J. Barret et al., Biochem. J. 1982, 201, 189-198). To 170 μl of an enzyme-buffer mixture (enzyme: recombinant rat cathepsin B, diluted to give approximate 10 Fluorescence units/min, buffer: 56 mM sodium acetate, 1.124 mM EDTA, 10 mM DTT, pH 5.1) 10 μL of inhibitor (dissolved in DMSO) is added. After 10 min of incubation at room temperature, a 20 μl of 5 mM substrate (N-CBZ-Phe-Arg-AMC, dissolved in DMSO) is added to initiate reaction. Reading is followed up for 10 min on a Fluoroskan fluorescence reader (excitation at 380 nm, emission at 460 nm).
(§1) A plot of percentage of inhibition vs inhibitor concentration is obtained, and IC50 is determined using a linear regression calculation (concentration of inhibitor which will give 50% inhibition).
Target sequence in this assay (P00787 80-339): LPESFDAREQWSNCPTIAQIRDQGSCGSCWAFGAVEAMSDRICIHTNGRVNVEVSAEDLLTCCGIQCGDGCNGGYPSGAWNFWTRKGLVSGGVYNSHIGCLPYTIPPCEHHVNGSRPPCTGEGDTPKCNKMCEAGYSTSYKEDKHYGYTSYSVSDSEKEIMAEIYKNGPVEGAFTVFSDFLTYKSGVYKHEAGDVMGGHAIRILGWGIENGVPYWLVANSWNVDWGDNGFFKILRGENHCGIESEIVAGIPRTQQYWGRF

The target of assay [2] is T2, cathepsin L (Rattus norvegicus, UniProt P07154). In words: In vitro assay procedure for cathepsin L (recombinant rat cathepsin L, N-CBZ-Phe-Arg-AMC substrate). Format: biochemical. The settings on record: pH 5.0, 10 min incubation at room temperature. How it is done:
In vitro assay procedure for cathepsin L
To 170 μl of enzyme-buffer mixture (enzyme: recombinant rat cathepsin L, diluted to give approximate 15 Fluorescence units/min, buffer: 58.8 mM sodium citrate, 1.18 mM EDTA, 235 mM sodium chloride, 5 mM DTT, pH 5.0) 10 μL of inhibitor (dissolved in DMSO) is added. After 10 min of incubation at room temperature, 20 μl of 1 mM substrate (N-CBZ-Phe-Arg-AMC, dissolved in DMSO) is added to initiate reaction. Reading is followed up for 10 min on a Fluoroskan fluorescence reader (excitation at 380 nm emission at 460 nm).
as §1
Target sequence in this assay (P07154 114-334): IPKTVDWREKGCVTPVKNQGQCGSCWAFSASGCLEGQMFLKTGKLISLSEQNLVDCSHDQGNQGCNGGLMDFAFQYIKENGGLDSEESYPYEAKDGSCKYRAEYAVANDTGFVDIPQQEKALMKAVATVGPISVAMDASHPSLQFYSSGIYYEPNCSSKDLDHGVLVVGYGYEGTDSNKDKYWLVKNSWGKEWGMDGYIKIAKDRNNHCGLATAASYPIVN

Assay [3] relates to cathepsin B. Briefly: In vivo inhibition test for cathepsin B, mouse liver ML fraction. The settings on record: 50 mg/kg intraperitoneal, 6 hours, mean for 3 animals. How it is done: (§2) In vivo inhibition test for cathepsin B and L
(§3) The in vivo inhibition of cathepsin B and L are tested according to the known method (T. Towatari et al, FEBS, 1991, 280, 311-315). Inhibitor is injected intraperitoneally into rodents as a solution in saline containing DMSO or DMSO:PEG400 (1:1) at the doses indicated in Table 2. The rodents are killed after 6 hours, and the liver is perfused with ice-cold saline, and chilled on ice. Sample of 4 g of liver are homogenized in 7 volumes of 0.25 M sucrose. The homogenate is centrifuged at 800 g for 15 min. and the supernatant is centrifuged at 12,000 g for 30 min. The precipitate (crude mitochondrial-lysosomal fraction; ML fraction) is suspended in 2 ml of 0.05 M acetate buffer, pH 5.0, and then freeze-thawed for measurements of cathepsin B and L.

Assay [4] relates to cathepsin L. In words: In vivo inhibition test for cathepsin L, mouse liver ML fraction. The settings on record: 50 mg/kg intraperitoneal, 6 hours, mean for 3 animals. As for the experimental part: as §2, §3
For assay [5], the target named is T1, cathepsin B. Briefly: In vivo inhibition test for cathepsin B, rat liver ML fraction. Also on record: The precipitate (crude mitochondrial-lysosomal fraction; from tissue; host or cells: liver, crude mitochondrial-lysosomal (ML) fraction of dosed rodents. The settings on record: 6 hours, mean for 3 animals. As for the experimental part:
as §2, §3
Target sequence in this assay (P00787 80-126 limits assumed): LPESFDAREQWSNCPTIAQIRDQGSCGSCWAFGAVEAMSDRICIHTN
Target sequence in this assay (P00787 129-333 limits assumed): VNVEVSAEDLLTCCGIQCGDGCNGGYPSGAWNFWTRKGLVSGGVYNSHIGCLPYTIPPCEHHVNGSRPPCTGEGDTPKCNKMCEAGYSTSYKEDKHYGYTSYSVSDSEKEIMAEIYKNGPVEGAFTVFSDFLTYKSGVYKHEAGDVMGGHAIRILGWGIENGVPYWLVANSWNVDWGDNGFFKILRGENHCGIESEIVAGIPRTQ

Assay [6] deals with T2, cathepsin L. In words: In vivo inhibition test for cathepsin L, rat liver ML fraction. Further details: The precipitate (crude mitochondrial-lysosomal fraction; from tissue; host or cells: liver, crude mitochondrial-lysosomal (ML) fraction of dosed rodents. The settings on record: 6 hours, mean for 3 animals. How it is done: as §2, §3
Target sequence in this assay (P07154 114-288 limits assumed): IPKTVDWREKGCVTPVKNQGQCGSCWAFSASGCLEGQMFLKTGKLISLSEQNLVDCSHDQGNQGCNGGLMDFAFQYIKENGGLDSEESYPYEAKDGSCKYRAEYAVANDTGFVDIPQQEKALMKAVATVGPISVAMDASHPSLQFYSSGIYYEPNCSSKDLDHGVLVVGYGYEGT
Target sequence in this assay (P07154 291-334 limits assumed): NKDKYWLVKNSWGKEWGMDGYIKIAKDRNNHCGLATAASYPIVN

As for `Cc1cccc(O[C@H]2NC(=O)[C@H]2NC(=O)[C@H](CC2CCCCC2)NC(=O)OCc2ccccc2)c1` [Example 9B, (3S,4R)-3-(2S-2-benzyloxycarbonylamino-2-cyclohexylmethyl-acetamido)-4-(3-methyl-phenoxy)-azetidin-2-one], the IC50 came to 0.25 µM in assay [1] and 0.003 µM in assay [2].

Take `CC(=O)O[C@@H]1NC(=O)[C@H]1NC(=O)[C@H](CC1CCCCC1)NC(=O)OCc1ccccc1` [Example 1, (3S,4S)-3-(2S-2-benzyloxycarbonylamino-2-cyclohexylmethyl-acetamido)-4-acetoxy-azetidin-2-one]: the half-maximal inhibitory concentration (IC50) in assay [1] was 8.71 µM; in assay [2], 0.78 µM.

On to `O=C(C=Cc1cccnc1)N[C@@H](CC1CCCCC1)C(=O)N[C@@H]1C(=O)N[C@H]1Oc1ccccc1` [Example 11, (3S,4S)-3-{2S-2-[3-(pyridin-3-yl)propenoyl]amino-2-cyclohexylmethyl-acetamido}-4-phenoxy-azetidin-2-one], for which the IC50 amounted to 2.2 µM in assay [1] and 0.43 µM in assay [2].

Regarding `CC(=O)O[C@@H]1NC(=O)[C@H]1NC(=O)[C@H](CC1CCCCC1)NC(=O)NCc1ccccc1` [Example 7, (3S,4S)-3-{2S-2-(benzylaminocarbonyl)amino-2-cyclohexylmethyl-acetamido}-4-acetoxy-azetidin-2-one], the IC50 in assay [1] was 11.6 µM; in assay [2], 2.3 µM.

Take `CC(=O)O[C@@H]1NC(=O)[C@H]1NC(=O)[C@H](CC1CCCCC1)NS(=O)(=O)/C=C/c1ccccc1` [Example 8, (3S,4S)-3-{2S-2-(phenylethenylsulfonyl)amino-2-cyclohexylmethyl-acetamido}-4-acetoxy-azetidin-2-one]: the values for the IC50 in assay [1] and in assay [2] were 11 µM and 2.16 µM, respectively.

As to `N[C@@H](Cc1ccc(O[C@@H]2NC(=O)[C@H]2NC(=O)[C@H](CC2CCCCC2)NC(=O)CCc2ccccc2)cc1)C(=O)O` [Example 3, (3S,4S)-3-{2S-2-(3-phenylpropionoyl)amino-2-cyclohexylmethyl-acetamido}-4-{4-(2S-2-amino-2-carboxy-ethyl)-phenoxy}-azetidin-2-one], the IC50 in assay [1] was determined as 34 µM; in assay [2], 1.82 µM. Moreover, the “Inhibition Cathepsin B” value in assay [3] turned out to be 65%. In assay [4], the “Inhibition Cathepsin L” value is 55%.

Regarding `Cc1cccc(O[C@@H]2NC(=O)[C@H]2NC(=O)[C@H](CC2CCCCC2)NC(=O)OCc2ccccc2)c1` [Example 9A, (3S,4S)-3-(2S-2-benzyloxycarbonylamino-2-cyclohexylmethyl-acetamido)-4-(3-methyl-phenoxy)-azetidin-2-one], the IC50 turned out to be 6.9 µM in assay [1] and 0.083 µM in assay [2].

`O=C(C=Cc1ccncc1)N[C@@H](CC1CCCCC1)C(=O)N[C@@H]1C(=O)N[C@H]1Oc1ccccc1` [Example 10, (3S,4S)-3-{2S-2-[3-(pyridin-4-yl)propenoyl]amino-2-cyclohexylmethyl-acetamido}-4-phenoxy-azetidin-2-one]: the IC50 was determined as 1 µM in assay [1] and 0.4 µM in assay [2].

On to `N[C@@H](Cc1ccc(O[C@@H]2NC(=O)[C@H]2NC(=O)[C@H](Cc2ccccc2)NC(=O)CCc2ccccc2)cc1)C(=O)O` [Ref. Compd.], for which the “Inhibition Cathepsin B” value came out at 37% in assay [5] (30 mg/kg intraperitoneal) and 56% in assay [5] (70 mg/kg intraperitoneal). The “Inhibition Cathepsin L” value in assay [6] (30 mg/kg intraperitoneal) stood at 30%; in assay [6] (70 mg/kg intraperitoneal), 55%.

On to `O=C(CCc1ccccc1)N[C@@H](CC1CCCCC1)C(=O)N[C@H]1C(=O)NC1S(=O)(=O)c1ccccc1` (stereo partly drawn) [Example 6, (3S,4SR)-3-{2S-2-(3-phenylpropionoyl)amino-2-cyclohexylmethyl-acetamido}-4-phenylsulfonyl-azetidin-2-one], for which the IC50 came out at 29 µM in assay [1] and 0.078 µM in assay [2].

Consider `O=C(CCc1ccccc1)N[C@@H](CC1CCCCC1)C(=O)N[C@H]1C(=O)NC1Sc1ccccc1` (stereo partly drawn) [Example 5, (3S,4SR)-3-{2S-2-(3-phenylpropionoyl)amino-2-cyclohexylmethyl-acetamido}-4-phenylthio-azetidin-2-one], for which the IC50 in assay [1] is 10.4 µM; in assay [2], 0.016 µM.

With `N[C@@H](Cc1ccc(O[C@H]2NC(=O)[C@H]2NC(=O)[C@H](CC2CCCCC2)NC(=O)CCc2ccccc2)cc1)C(=O)O` [Example 4, (3S,4R)-3-{2S-2-(3-phenylpropionoyl)amino-2-cyclohexylmethyl-acetamido}-4-{4-(2S-2-amino-2-carboxy-ethyl)-phenoxy}-azetidin-2-one], the IC50 in assay [1] was determined as 9.2 µM; in assay [2] it was 1.8 µM.

`CC(=O)O[C@@H]1NC(=O)[C@H]1NC(=O)[C@H](CC1CCCCC1)NC(=O)CCc1ccccc1` [Example 2, (3S,4S)-3-{2S-2-(3-phenylpropionoyl)amino-2-cyclohexylmethyl-acetamido}-4-acetoxy-azetidin-2-one]: the IC50 came to 11.6 µM in assay [1] and 2.32 µM in assay [2].
